Measured values reported in article PMC5733122, “Purification, Characterization, and Mode of Action of Pentocin JL-1, a Novel Bacteriocin Isolated from Lactobacillus pentosus, against Drug-Resistant Staphylococcus aureus” (BioMed Research International, 2017).

Tests used:
[1] = tested on: Pseudomonas aeruginosa CGMCC1.1785; experiment: Agar-well diffusion test; type: cell-based
Description: (§1) The intestinal tracts of C. punctatum (grey carpet shark) were dissected and homogenized in 20 mL saline solution under sterile conditions and were then plated in serial dilutions in deMan, Rogosa, and Sharpe (MRS) medium. The plates were incubated aerobically at 30°C for 24 h. Several colonies were picked at random and incubated again in MRS broth. For screening for bacteriocin-producing strains, the agar-well diffusion test was used to detect antimicrobial activity in cell-free supernatants (filtered through a 0.22 μm Millipore filter) obtained by centrifugation (10,000g, 30 min, 4°C) after 18, 36, 60, and 72 h incubation. The Gram-positive strain MRSA GIM 1.771 and the Gram-negative strain Escherichia coli O157:H7 GIM 1.707 were used as indicator strains. Before the experiments, the indicator strains were grown to 10^6 CFU/mL. Then, 1 mL of the culture was mixed with 100 mL soft agar medium and poured onto individual Petri dishes. Subsequently, 8 mm diameter wells were punched onto the plates, and each well was filled with 100 μL of the cell-free supernatants under sterile conditions. The plates were incubated overnight at their respective optimum temperatures, and the clear zones of inhibition were measured in diameter and indicated the presence of antimicrobial activity. In our study, all bacteria culture media and chemical reagents were supplied by Sigma-Aldrich (USA).
(§2) The agar-well diffusion test as described previously was used to detect the antimicrobial activity of the purified pentocin JL-1 (15 μg/mL, pH 5.5). LAB strains were grown in MRS broth at 30°C for 16 h. Other Gram-positive indicator strains were grown in Tryptone Soy Broth (TSB) medium at 37°C and the Gram-negative indicator strains were grown in Luria-Bertani broth medium at 37°C.

[2] = tested on: Micrococcus luteus CGMCC1.2299; experiment: Agar-well diffusion test; type: cell-based
Description: as §1, §2

[3] = tested on: Listeria monocytogenes ATCC19112; experiment: Agar-well diffusion test; type: cell-based
Description: as §1, §2

[4] = tested on: Multidrug-resistant S. aureus 5; experiment: Agar-well diffusion test; type: cell-based; settings: 15 μg/mL, pH 5.5, pork isolate resistant to FOX, TET, GEN, C, mean ± SD, triplicate
Description: as §1, §2

[5] = tested on: Enterococcus faecalis ATCC51575; experiment: Agar-well diffusion test; type: cell-based
Description: as §1, §2

[6] = tested on: Multidrug-resistant S. aureus 1; experiment: Agar-well diffusion test; type: cell-based; settings: 15 μg/mL, pH 5.5, pork isolate resistant to FOX, TET, mean ± SD, triplicate
Description: as §1, §2

[7] = tested on: Vibrio parahaemolyticus GIM1.306; experiment: Agar-well diffusion test; type: cell-based
Description: as §1, §2

[8] = tested on: Multidrug-resistant S. aureus 3; experiment: Agar-well diffusion test; type: cell-based; settings: 15 μg/mL, pH 5.5, pork isolate resistant to FOX, TET, GEN, mean ± SD, triplicate
Description: as §1, §2

[9] = tested on: Lactobacillus acidophilus ATCC314; experiment: Agar-well diffusion test; type: cell-based
Description: as §1, §2

[10] = tested on: Lactobacillus casei ATCC393; experiment: Agar-well diffusion test; type: cell-based; settings: purified pentocin JL-1 15 μg/mL, pH 5.5, inhibition zone diameter class incl. 8 mm well
Description: as §1, §2

[11] = tested on: Multidrug-resistant S. aureus 4; experiment: Agar-well diffusion test; type: cell-based; settings: 15 μg/mL, pH 5.5, pork isolate resistant to FOX, TET, C, mean ± SD, triplicate
Description: as §1, §2

[12] = tested on: Bacillus subtilis CGMCC1.1627; experiment: Agar-well diffusion test; type: cell-based
Description: as §1, §2

[13] = tested on: Multidrug-resistant S. aureus 6; experiment: Agar-well diffusion test; type: cell-based; settings: 15 μg/mL, pH 5.5, pork isolate resistant to CIP, FOX, C, SXT, TET, GEN, mean ± SD, triplicate
Description: as §1, §2

[14] = tested on: Multidrug-resistant S. aureus 2; experiment: Agar-well diffusion test; type: cell-based; settings: 15 μg/mL, pH 5.5, pork isolate resistant to FOX, GEN, mean ± SD, triplicate
Description: as §1, §2

proteinase K = target: T1, proteinase K (Parengyodontium album, UniProt P06873); experiment: Enzymatic sensitivity, residual antibacterial activity; type: in vitro ADME; settings: 1 h
T1 construct: purchased Sigma-Aldrich
Description: […] After incubation for 1 h, the bacteriocin-enzyme mixture was boiled for 5 min to inactivate the enzymes.
The residual antibacterial activities of the above samples were calculated using the agar-well diffusion test with MRSA GIM 1.771 as the indicator strain. […] Lyophilized pentocin JL-1 dissolved in 0.05% (w/v) acetic acid at 15 μg/mL with pH 5.5 was used as a control in all assays.

MRSA GIM 1.771 = experiment: Time-killing kinetics, viable cell counts; type: cell-based, Staphylococcus aureus; settings: for instantaneous killing action, log10 reduction: at 0 h, viable cell counts on TSB agar, exponential-phase culture, 37°C
Description: The bacteriostatic or bactericidal mode of action of pentocin JL-1 was tested as described previously by Zhu et al. with some modifications. MRSA GIM 1.771 was cultivated to the exponential phase in 100 mL of TSB culture medium. The lyophilized purified pentocin JL-1 dissolved in 0.05% (w/v) acetic acid was added to the cultures at a final concentration of 1x MIC and the same volume of 0.05% (w/v) acetic acid was added to the aforementioned media as a control. Samples were incubated at 37°C and bacterial suspensions were taken each hour for 24 h, and the absorbance was measured at OD600. In addition, the viable cell counts on TSB agar medium after the addition of 1x MIC, 2x MIC, and 3x MIC of pentocin JL-1 were also quantified every 10 min for 1 h.

[15] = purified pentocin JL-1 15 μg/mL, pH 5.5, inhibition zone diameter class incl. 8 mm well

T1 sequence (P06873 106-384): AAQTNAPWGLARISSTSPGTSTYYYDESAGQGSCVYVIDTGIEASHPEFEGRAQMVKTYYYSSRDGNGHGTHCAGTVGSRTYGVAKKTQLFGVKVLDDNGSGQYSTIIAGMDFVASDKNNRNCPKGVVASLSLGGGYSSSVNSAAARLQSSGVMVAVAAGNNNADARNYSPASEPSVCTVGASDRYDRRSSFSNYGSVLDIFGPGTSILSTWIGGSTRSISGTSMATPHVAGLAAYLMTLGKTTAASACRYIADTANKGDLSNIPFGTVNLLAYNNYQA

VAKVAR [pentocin JL-1, novel bacteriocin produced by Lactobacillus pentosus JL-1, purified by four-step chromatography, molecular mass 2987.23 Da, cationic and hydrophobic peptide]
inhibitory activity ([1]; 15 μg/mL, pH 5.5): inhibited | Antimicrobial activity [1, 15]: + (+: 10–14) | inhibitory activity ([2]; 15 μg/mL, pH 5.5): inhibited | Antimicrobial activity [2, 15]: ++ (++: 15–19) | inhibitory activity ([3]; 15 μg/mL, pH 5.5): inhibited | Antimicrobial activity [3, 15]: ++ (++: 15–19) | Inhibitor zone [4]: 23.9 ± 1.5 mm | inhibitory activity ([5]; 15 μg/mL, pH 5.5): inhibited | Antimicrobial activity [5, 15]: ++ (++: 15–19) | Inhibitor zone [6]: 23.8 ± 0.8 mm | inhibitory activity ([7]; 15 μg/mL, pH 5.5): no inhibitory activity | Antimicrobial activity [7, 15]: − | Inhibitor zone [8]: 24.3 ± 0.7 mm | inhibitory activity ([9]; 15 μg/mL, pH 5.5): no inhibitory activity | Antimicrobial activity [9, 15]: − | Antimicrobial activity [10]: +++ (+++: 20–25) | Inhibitor zone [11]: 22.4 ± 0.6 mm | inhibitory activity ([12]; 15 μg/mL, pH 5.5): inhibited | Antimicrobial activity [12, 15]: ++ (++: 15–19) | Inhibitor zone [13]: 23.7 ± 0.6 mm | Inhibitor zone [14]: 22.5 ± 1.2 mm | Residual inhibitory activity (inhibition zone diameter, mm) (proteinase K; Proteinase K 75 μg/mL (pH 7.5, 55°C), then boiled 5 min, pentocin JL-1 15 μg/mL, agar-well diffusion vs MRSA GIM 1.771, mean ± SD, triplicate): 17.3 ± 1.2 mm | Residual inhibitory activity (%) (proteinase K; Proteinase K 75 μg/mL (pH 7.5, 55°C), pentocin JL-1 15 μg/mL, vs MRSA GIM 1.771, relative to control): 72.38^∗ % | inhibitory action after enzyme treatment (proteinase K; proteinase K 75 μg/mL, p < 0.05): significantly reduced | instantaneous killing action, log10 reduction (MRSA GIM 1.771; 1x MIC): 1.05 log10 | mode of action (bacteriostatic or bactericidal) (MRSA GIM 1.771; 1x, 2x, 3x MIC, viable counts over 1 h): bactericidal | instantaneous killing action, log10 reduction (MRSA GIM 1.771; 2x MIC): 2.14 log10 | instantaneous killing action, log10 reduction (MRSA GIM 1.771; 3x MIC): 2.21 log10
